From the NIST ThermoML archive (doi:10.1021/je700260f)
± gives the expanded uncertainty stated by the source.

Details: 283.15 K, Liquid, Vibrating tube method

FC(C(F)(F)F)C(F)(F)F [1,1,1,2,3,3,3-heptafluoropropane]
Details | mass density [kg/m3]
6297 kPa | 1481.2 ± 1.5
6322 kPa | 1481.4 ± 1.5
6344 kPa | 1481.4 ± 1.5
6375 kPa | 1481.6 ± 1.5
6406 kPa | 1481.7 ± 1.5
6431 kPa | 1481.9 ± 1.5
6461 kPa | 1481.9 ± 1.5
6486 kPa | 1482.3 ± 1.5
6517 kPa | 1482.3 ± 1.5
6547 kPa | 1482.4 ± 1.5
6577 kPa | 1482.5 ± 1.5
6611 kPa | 1482.7 ± 1.5
6635 kPa | 1482.9 ± 1.5
6659 kPa | 1483.1 ± 1.5
6686 kPa | 1483.1 ± 1.5
6713 kPa | 1483.1 ± 1.5
6738 kPa | 1483.2 ± 1.5
6762 kPa | 1483.3 ± 1.5
6790 kPa | 1483.5 ± 1.5
6822 kPa | 1483.7 ± 1.5
6853 kPa | 1483.9 ± 1.5
6877 kPa | 1484 ± 1.5
6913 kPa | 1484.2 ± 1.5
6937 kPa | 1484.3 ± 1.5
6998 kPa | 1484.5 ± 1.5
7022 kPa | 1484.7 ± 1.5
7050 kPa | 1484.8 ± 1.5
7079 kPa | 1485 ± 1.5
7107 kPa | 1485 ± 1.5
7134 kPa | 1485.2 ± 1.5
7154 kPa | 1485.2 ± 1.5
7185 kPa | 1485.5 ± 1.5
7209 kPa | 1485.6 ± 1.5
7237 kPa | 1485.7 ± 1.5
7266 kPa | 1485.9 ± 1.5
7293 kPa | 1485.9 ± 1.5
7325 kPa | 1486.1 ± 1.5
7349 kPa | 1486.2 ± 1.5
7385 kPa | 1486.3 ± 1.5
7415 kPa | 1486.5 ± 1.5
7443 kPa | 1486.7 ± 1.5
8348 kPa | 1490.8 ± 1.5
8383 kPa | 1491.1 ± 1.5
8413 kPa | 1491.1 ± 1.5
8453 kPa | 1491.2 ± 1.5
8481 kPa | 1491.5 ± 1.5
8520 kPa | 1491.6 ± 1.5
8545 kPa | 1491.6 ± 1.6
8576 kPa | 1491.9 ± 1.6
8606 kPa | 1492 ± 1.6
8641 kPa | 1492.2 ± 1.6
8667 kPa | 1492.3 ± 1.6
8702 kPa | 1492.4 ± 1.6
8724 kPa | 1492.5 ± 1.6
8755 kPa | 1492.6 ± 1.6
8782 kPa | 1492.8 ± 1.6
8808 kPa | 1492.9 ± 1.6
8841 kPa | 1492.9 ± 1.6
8868 kPa | 1493.1 ± 1.6
8904 kPa | 1493.4 ± 1.6
8936 kPa | 1493.4 ± 1.6
8973 kPa | 1493.5 ± 1.6
9000 kPa | 1493.8 ± 1.6
9041 kPa | 1493.9 ± 1.6
9068 kPa | 1494 ± 1.6
9104 kPa | 1494.2 ± 1.6
9140 kPa | 1494.3 ± 1.6
9167 kPa | 1494.5 ± 1.6
9194 kPa | 1494.6 ± 1.6
9230 kPa | 1494.7 ± 1.6
9266 kPa | 1495 ± 1.6
9294 kPa | 1495.1 ± 1.6
9330 kPa | 1495.1 ± 1.6
9361 kPa | 1495.3 ± 1.6
9403 kPa | 1495.5 ± 1.6
9441 kPa | 1495.7 ± 1.6
9483 kPa | 1495.8 ± 1.6
9641 kPa | 1496.6 ± 1.6
9679 kPa | 1496.6 ± 1.6
9707 kPa | 1496.9 ± 1.6
9754 kPa | 1497 ± 1.6
9777 kPa | 1497.2 ± 1.6
9809 kPa | 1497.3 ± 1.6
9842 kPa | 1497.5 ± 1.6
9875 kPa | 1497.5 ± 1.6
9912 kPa | 1497.8 ± 1.6
9941 kPa | 1497.8 ± 1.6
9979 kPa | 1498 ± 1.6
10009 kPa | 1498.1 ± 1.6
10055 kPa | 1498.3 ± 1.6
10080 kPa | 1498.4 ± 1.6
10109 kPa | 1498.5 ± 1.6
10139 kPa | 1498.7 ± 1.6
10164 kPa | 1498.8 ± 1.6
10198 kPa | 1499 ± 1.6
10233 kPa | 1499.2 ± 1.6
10254 kPa | 1499.2 ± 1.6
10289 kPa | 1499.3 ± 1.6
10314 kPa | 1499.5 ± 1.6
10348 kPa | 1499.7 ± 1.6
10370 kPa | 1499.7 ± 1.6
10399 kPa | 1499.7 ± 1.6
10424 kPa | 1500.1 ± 1.6
